Molecular target: T1, Ns H-NOX (Nostoc sp. PCC 7120 = FACHB-418, UniProt A0ACD6B960, C139A)
T1 construct: gene alr2278
Experiment: 1H-15N HSQC NMR titration (chemical shift perturbation)
Type: binding
Conditions: 298 K; heme-bound, no NO; surface site next to heme; one KD per perturbed residue

T1 sequence (A0ACD6B960 entry or part of it C139A): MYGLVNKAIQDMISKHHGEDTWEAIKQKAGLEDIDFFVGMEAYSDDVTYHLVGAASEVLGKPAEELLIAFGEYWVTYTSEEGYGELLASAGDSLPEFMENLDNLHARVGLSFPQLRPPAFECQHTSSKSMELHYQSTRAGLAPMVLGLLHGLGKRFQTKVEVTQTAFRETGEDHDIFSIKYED

Structure (SMILES): Nc1nc(-c2nn(Cc3ccccc3F)c3ncccc23)ncc1C1CC1 [BAY 41-2272]
- KD: yielding the binding constant (K D ) for each residue

From article PMC9247194, “Mapping of the sGC Stimulator BAY 41-2272 Binding Site on H-NOX Domain and Its Regulation by the Redox State of the Heme” (Frontiers in Cell and Developmental Biology, 2022)
